{"source": "patent US6395757B1", "about": "“Method for treating hot flashes in humans” (priority 1998, dated 2002)", "key": {"[1]": {"settings": "transdermal, tamoxifen-treated women; cited from earlier work"}, "[2]": {"settings": "solution applied to the face of the patient; cited from earlier work"}, "[3]": {"assay": "Daily topical application of 0.5% glycopyrrolate roll-on solution in tamoxifen-treated breast cancer patients (Examples 2 and 3)", "type": "in vivo, human", "source_text": "A person treated with tamoxifen for breast cancer described 8 months of hot flashes and perspiration that awakened them from sleep.\nA person treated with tamoxifen for breast cancer described hot flashes and perspiration beginning on their scalp, which interfered with their sleep."}, "[4]": {"assay": "Daily topical application of 0.5% glycopyrrolate lotion in a patient with menopausal hot flashes (Example 1)", "type": "in vivo, human", "procedure": "The patient is a person with a history of hot flashes and perspiration associated with menopause. They complained about profuse facial, scalp and anterior neck sweating that occurred randomly with the hot flashes. As a treatment, the patient was offered and consented to the application of 0.5% glycopyrrolate topical lotion, which they applied once daily to their forehead and face, sparing their mouth and eyes. The lotion consisted of 1.5 gm glycopyrrolate; 75 ml ethanol; 2.4 gm hydroxyethylcell; brought to a total volume of 300 ml with water and the pH adjusted to 2-4.5."}, "[5]": {"settings": "cited from earlier work"}, "[6]": {"settings": "Example 2: person on tamoxifen, 0.5% roll-on solution daily to face"}, "[7]": {"settings": "Example 3: person on tamoxifen, 0.5% roll-on solution daily to scalp and around hair line"}}}
{"smiles": "Clc1cccc(Cl)c1N=C1NCCN1", "note": "[clonidine]", "values": [{"measurement": "frequency and severity of hot flashes", "setting": "[1]", "value": "only a moderate effect"}]}
{"smiles": "C[N+]1(C)CCC(OC(=O)C(O)(c2ccccc2)C2CCCC2)C1", "note": "(centres unmarked) [glycopyrrolate]", "values": [{"measurement": "gustatory sweating", "setting": "[2]", "value": "prevented the gustatory sweating"}, {"measurement": "quality of sleep", "setting": "[3]; [6]", "value": "improvement in the quality of their sleep"}, {"measurement": "symptoms (hot flashes and perspiration)", "setting": "[3]; [6]", "value": "greatly relieved their symptoms"}, {"measurement": "sleep", "setting": "[3]; [7]", "value": "improved sleep"}, {"measurement": "symptoms (hot flashes and perspiration)", "setting": "[3]; [7]", "value": "greatly relieved their symptoms"}, {"measurement": "symptoms during continued use", "setting": "[4]; daily topical roll-on lotion, subsequent 6 months", "value": "continued to alleviate their symptoms"}, {"measurement": "perspiration associated with the hot flashes", "setting": "[4]; person, menopause, 0.5% lotion once daily to forehead and face", "value": "complete resolution"}, {"measurement": "hot flashes associated with menopause (patient report)", "setting": "[4]; person, 0.5% lotion once daily to forehead and face", "value": "alleviated"}]}
{"smiles": "CC(=O)O[C@]1(C(C)=O)CC[C@H]2[C@@H]3C=C(C)C4=CC(=O)CC[C@]4(C)[C@H]3CC[C@@]21C", "note": "[megestrol acetate]", "values": [{"measurement": "frequency of hot flashes", "setting": "[5]; low dose oral, men and women, short term study", "value": "reduce the frequency of hot flashes"}, {"measurement": "side effect when taken long term", "setting": "[5]; low dose, long term", "value": "chronic adrenal insufficiency can be a side effect"}]}
